Measured values reported in ChEMBL document CHEMBL3425504, “Lead optimization of spiropyrazolopyridones: a new and potent class of dengue virus inhibitors” (ACS Med Chem Lett, 2015).
Values after ≈ are worked out from the molar mass of the structure shown. Active and inactive are the calls of the source. The rule behind the calls is not given here.

Columns and labels:
dengue virus type 2 [1] = experiment: Antiviral activity against dengue virus 2 infected in BHK21 cells incubated for 48 hrs by CFI assay; assay type: functional, organism-based; conditions: BHK-21, 48 h
dengue virus type 2 [2] = experiment: Antiviral activity against dengue virus 2 infected in human A549 cells incubated for 48 hrs by viral titer reduction assay; assay type: functional, organism-based; conditions: A549, 48 h
[3] = Cytotoxicity against human HepG2 cells incubated for 96 hrs by CCK8 assay; assay type: cell-based
[4] = Lipophilicity, log P of the compound; assay type: physicochemical; conditions: octanol/water
[5] = Hepatic extraction ratio in mouse liver microsomes; assay type: ADME; conditions: read-out: ERH
[6] = Half life in mouse liver microsomes; assay type: ADME
[7] = Cmax in Wistar rat at 25 mg/kg, po after 0.17 to 24 hrs by LC-MS/MS method; assay type: ADME, organism-based; set-up: dose 25 mg/kg, route oral; conditions: in vivo
[8] = Tmax in Wistar rat at 25 mg/kg, po after 0.17 to 24 hrs by LC-MS/MS method; assay type: ADME, organism-based; set-up: dose 25 mg/kg, route oral; conditions: in vivo
[9] = AUC (0 to 24 hrs) in Wistar rat at 25 mg/kg, po after 0.17 to 24 hrs by LC-MS/MS method; assay type: ADME, organism-based; set-up: time < 24 hr, dose 25 mg/kg, route oral; conditions: plasma
[10] = Absolute oral bioavailability in Wistar rat at 25 mg/kg after 0.17 to 24 hrs by LC-MS/MS method; assay type: ADME, organism-based; conditions: in vivo
[11] = Solubility in pH 6.8 buffer
[12] = Plasma clearance in Wistar rat at 5 mg/kg, iv after 0.17 to 24 hrs by LC-MS/MS method
[13] = Terminal half-life in Wistar rat at 5 mg/kg, iv after 0.17 to 24 hrs by LC-MS/MS method; conditions: in vivo, read-out: beta t1/2 (converted)
Rattus norvegicus = experiment: Volume of distribution at steady state in Wistar rat at 5 mg/kg, iv after 0.17 to 24 hrs by LC-MS/MS method; conditions: in vivo
dengue virus type 2 [14] = experiment: Antiviral activity against dengue virus 2 TSV01 in AG129 mouse model of dengue viremia assessed as log reduction in virus plaques at 50 mg/kg, po BID for 3 days relative to untreated control; assay type: functional
dengue virus type 2 [15] = experiment: Antiviral activity against dengue virus 2 TSV01 in AG129 mouse model of dengue viremia assessed as log reduction in virus plaques at 100 mg/kg, po QD for 3 days relative to untreated control
dengue virus type 2 [16] = experiment: Antiviral activity against dengue virus 2 TSV01 in AG129 mouse model of dengue viremia assessed as log reduction in virus plaques at 25 mg/kg, po BID for 3 days relative to untreated control; assay type: functional, organism-based; set-up: dose 25 mg/kg

O=C1C[C@]2(C(=O)Nc3ccc(Cl)cc32)c2cnn(Cc3ccc(Cl)cc3)c2N1
EC50 (dengue virus type 2 [1]): 0.012 µM
EC50 (dengue virus type 2 [2]): 0.012 µM
CC50 at 96 h [3]: > 10 µM
logP [4]: 4.9
hepatic extraction ratio [5]: 0.66
half-life [6]: 31 min
Cmax [7]: 780 ng/mL
Tmax [8]: 120 min
AUC(0-t) at 24 h [9]: 9500 ng·h/mL
bioavailability [10]: 33%
solubility [11]: 11 µM (≈ 4.55 µg/mL)
clearance [12]: 15.1 mL/min/kg
half-life [13]: 228 min
Vdss (Rattus norvegicus): 4.3 L/kg

O=C1C[C@]2(C(=O)Nc3ccc(Cl)cc32)c2cnn(Cc3ccc(C(F)(F)F)cc3)c2N1
EC50 (dengue virus type 2 [1]): 0.021 µM
CC50 at 96 h [3]: > 10 µM
logP [4]: 4.1
hepatic extraction ratio [5]: 0.49
half-life [6]: 62 min
solubility [11]: 27 µM (≈ 12.1 µg/mL)

CN1C(=O)CC2(C(=O)Nc3ccc(Cl)cc32)c2cnn(Cc3ccc(Cl)cc3)c21 (racemic)
EC50 (dengue virus type 2 [1]): 0.42 µM
CC50 at 96 h [3]: > 10 µM

O=C1C[C@]2(C(=O)Nc3ccc(Cl)cc32)c2cnn(Cc3ccc(Cl)cn3)c2N1
EC50 (dengue virus type 2 [1]): 0.23 µM
EC50 (dengue virus type 2 [2]): 0.042 µM
CC50 at 96 h [3]: 33 µM
logP [4]: 2.8
hepatic extraction ratio [5]: 0.71
half-life [6]: 24 min
Cmax [7]: 3860 ng/mL
Tmax [8]: 10.2 min
AUC(0-t) at 24 h [9]: 13800 ng·h/mL
bioavailability [10]: 63%
FC (dengue virus type 2 [14]): 1.9
solubility [11]: 504 µM (≈ 209 µg/mL)
clearance [12]: 18.8 mL/min/kg
half-life [13]: 78 min
Vdss (Rattus norvegicus): 3 L/kg
FC (dengue virus type 2 [15]): 1.9

COc1ccc(Cn2ncc3c2NC(=O)CC32C(=O)Nc3ccc(Cl)cc32)cc1 (racemic)
EC50 (dengue virus type 2 [1]): 6.2 µM
CC50 at 96 h [3]: > 10 µM

O=C1CC2(C(=O)Nc3ccc(Cl)cc32)c2cnn(-c3ccc(Cl)cc3)c2N1 (racemic)
EC50 (dengue virus type 2 [1]): 32.5 µM
CC50 at 96 h [3]: > 10 µM

CN1C(=O)C2(CC(=O)Nc3c2cnn3Cc2ccc(Cl)cc2)c2cc(Cl)ccc21 (racemic)
EC50 (dengue virus type 2 [1]): 0.011 µM
CC50 at 96 h [3]: > 10 µM

O=C1CC2(C(=O)Nc3ccc(Cl)cc32)c2cnn(Cc3ccc(Cl)cc3)c2N1 (racemic)
EC50 (dengue virus type 2 [1]): 0.051 µM

O=C1CC2(C(=O)Nc3ccc(Cl)cc32)c2cnn(Cc3ccccc3Cl)c2N1 (racemic)
EC50 (dengue virus type 2 [1]): 1.7 µM
CC50 at 96 h [3]: > 10 µM

O=C1CC2(C(=O)Nc3ccc(Cl)cc32)c2cnn(CCc3ccc(Cl)cc3)c2N1 (racemic)
EC50 (dengue virus type 2 [1]): 7.2 µM
CC50 at 96 h [3]: > 10 µM

CN1C(=O)[C@]2(CC(=O)Nc3c2cnn3Cc2ccc(Cl)cc2)c2cc(Cl)ccc21
EC50 (dengue virus type 2 [1]): 0.006 µM
CC50 at 96 h [3]: > 10 µM
logP [4]: 4.6
hepatic extraction ratio [5]: 0.91
half-life [6]: 5.8 min
solubility [11]: 161 µM (≈ 68.8 µg/mL)

O=C1CC2(C(=O)Nc3ccc(Cl)cc32)c2cnn(Cc3ccc(Cl)nc3)c2N1 (racemic)
EC50 (dengue virus type 2 [1]): 32.8 µM
CC50 at 96 h [3]: > 10 µM

O=C1CC2(C(=O)Nc3ccc(Cl)cc32)c2cnn(CC3CCC(F)(F)CC3)c2N1 (racemic)
EC50 (dengue virus type 2 [1]): 22.5 µM
CC50 at 96 h [3]: > 10 µM

O=C1C[C@@]2(C(=O)Nc3ccc(Cl)cc32)c2cnn(Cc3ccc(Cl)cc3)c2N1
EC50 (dengue virus type 2 [1]): 2.71 µM

O=C1CC2(C(=O)Nc3ccc(Cl)cc32)c2cnn(Cc3ccc(C(F)(F)F)cc3)c2N1 (racemic)
EC50 (dengue virus type 2 [1]): 0.025 µM
CC50 at 96 h [3]: > 10 µM

O=C1Nc2ccc(Cl)cc2C12CCNc1c2cnn1Cc1ccc(Cl)cc1 (racemic)
EC50 (dengue virus type 2 [1]): 4 µM
CC50 at 96 h [3]: 8.1 µM

O=C1CC2(C(=O)Nc3ccc(Cl)cc32)c2cnn(Cc3cccc(Cl)c3)c2N1 (racemic)
EC50 (dengue virus type 2 [1]): 3.9 µM
CC50 at 96 h [3]: > 10 µM

O=C1CC2(C(=O)Nc3ccc(Br)cc32)c2cnn(Cc3ccc(Cl)cc3)c2N1 (racemic)
EC50 (dengue virus type 2 [1]): 0.05 µM
CC50 at 96 h [3]: > 10 µM

O=C1C[C@@]2(C(=O)Nc3ccc(Cl)cc32)c2cnn(Cc3ccc(Cl)cn3)c2N1
EC50 (dengue virus type 2 [1]): 18.4 µM
CC50 at 96 h [3]: > 10 µM

O=C1CC2(C(=O)Nc3ccc(Cl)cc32)c2cnn(Cc3ccc(Cl)cn3)c2N1 (racemic)
EC50 (dengue virus type 2 [1]): 0.67 µM
CC50 at 96 h [3]: 33 µM

O=C1CC2(CNc3ccc(Cl)cc32)c2cnn(Cc3ccc(Cl)cc3)c2N1 (racemic)
EC50 (dengue virus type 2 [1]): 1.1 µM
CC50 at 96 h [3]: > 10 µM

COc1ccc2c(c1)C1(CC(=O)Nc3c1cnn3Cc1ccc(Cl)cc1)C(=O)N2 (racemic)
EC50 (dengue virus type 2 [1]): 2.3 µM
CC50 at 96 h [3]: > 10 µM

C#C[C@@]1(O)[C@H](O)[C@@H](CO)O[C@H]1n1ccc2c(N)ncnc21
inhibition (dengue virus type 2 [16]): Active

CN1C(=O)[C@@]2(CC(=O)Nc3c2cnn3Cc2ccc(Cl)cc2)c2cc(Cl)ccc21
EC50 (dengue virus type 2 [1]): 0.772 µM
CC50 at 96 h [3]: > 10 µM

O=C1CC2(C(=O)Nc3ccc(Cl)cc32)c2cnn(Cc3ncc(Cl)cn3)c2N1 (racemic)
EC50 (dengue virus type 2 [1]): 85.3 µM
CC50 at 96 h [3]: > 10 µM

O=C1CC2(C(=O)Nc3ccc(C(F)(F)F)cc32)c2cnn(Cc3ccc(Cl)cc3)c2N1 (racemic)
EC50 (dengue virus type 2 [1]): 1.3 µM
CC50 at 96 h [3]: > 10 µM

O=C1C[C@@]2(C(=O)Nc3ccc(Cl)cc32)c2cnn(Cc3ccc(C(F)(F)F)cc3)c2N1
EC50 (dengue virus type 2 [1]): 3.9 µM
CC50 at 96 h [3]: > 10 µM
